Data reported in patent publication US4610982A, “Anti-inflammatory benzo- and thieno-1,2-thiazine-3-carboxamide 1,1-dioxide derivatives, compositions, and method of use therefor” (Pfizer Inc., priority 1985, dated 1986).

Tests used:
[1] = system: carrageenin-induced rat foot edema; test: carrageenin-induced rat foot edema test; type: in vivo; details: 32 mg./kg. dose level, oral route; rat hind paw edema three hours after carrageenin injection
From the text: (§1) The novel 2-acetoxybenzoyl and ring-substituted α-arylpropionyl oxicam esters of the present invention are all readily adapted to therapeutic use as anti-arthritic agents. […] A. Winter et al., Proc. Soc. Exp. Biol. Med., Vol. 111, p. […] Additionally, hydrolysis of this novel product in vivo simultaneously produces two different anti-inflammatory compounds of known value (viz., piroxicam and ketoprofen). The other oxicam ester compounds of this invention also afford similar results.
In this test, anti-inflammatory activity is determined as the percent inhibition of edema formation in the hind paw of male albino rats (weighing 150-190g.) in response to a sub-plantar injection of carrageenin. The carrageenin is injected as a 1% aqueous suspension (0.015 ml.) one hour after oral administration of the drug, which is normally given in the form of an aqueous solution. Edema formation is then assessed by measuring the volume of the injected paw initially as well as three hours after the carrageenin injection. The increase in volume three hours after carrageenin injection constitutes the individual response. […]

lipoxygenase = lipoxygenase inhibition; type: biochemical
cyclooxygenase = cyclooxygenase (Homo sapiens, UniProt P23219); test: cyclooxygenase inhibition; type: biochemical
From the text: as §1

Chain of cyclooxygenase (P23219 24-599): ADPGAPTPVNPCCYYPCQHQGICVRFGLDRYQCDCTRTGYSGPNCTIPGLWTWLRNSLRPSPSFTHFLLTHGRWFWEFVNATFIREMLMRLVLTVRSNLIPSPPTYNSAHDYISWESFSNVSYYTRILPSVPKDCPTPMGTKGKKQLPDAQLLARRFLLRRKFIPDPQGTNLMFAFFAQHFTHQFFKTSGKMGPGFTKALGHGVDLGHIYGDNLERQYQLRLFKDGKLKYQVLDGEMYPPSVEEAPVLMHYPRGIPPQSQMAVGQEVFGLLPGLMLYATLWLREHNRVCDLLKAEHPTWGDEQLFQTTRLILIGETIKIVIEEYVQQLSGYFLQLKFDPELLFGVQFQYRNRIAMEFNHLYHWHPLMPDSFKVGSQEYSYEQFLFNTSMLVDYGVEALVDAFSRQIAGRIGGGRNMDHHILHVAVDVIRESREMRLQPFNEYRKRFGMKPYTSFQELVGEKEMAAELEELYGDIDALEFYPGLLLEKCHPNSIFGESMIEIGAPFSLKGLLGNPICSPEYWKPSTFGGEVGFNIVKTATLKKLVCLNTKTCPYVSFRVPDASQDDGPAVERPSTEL

CC(C(=O)OC1=C(C(=O)Nc2ccccn2)N(C)S(=O)(=O)c2ccccc21)c1cccc(C(=O)c2ccccc2)c1 (stereo not drawn) [Example 3, 4-[α-(3-benzoylphenyl)propionyloxy]-2-methyl-N-(2-pyridinyl)-2H-1,2-benzothiazine-3-carboxamide 1,1-dioxide]
inhibition in swelling [1]: 64%
IC50 (lipoxygenase): 0.02 µM
IC50 (cyclooxygenase): 10 µM
